The supplement of paper PMC10307832

Key:
Assay in all cases: relative viability (nuclei count vs DMSO), 5 days (fraction); higher = more cells survive
NCI-H1944 = test system: NCI-H1944
In short: (§1)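 For relative viability, nuclei counts in treated wells were divided by those in vehicle wells. Lung cancer cell lines had been pin-tool dosed in 1536-well plates the day after seeding and cultured for 5 days, then fixed and stained in one step (final 0.05% Triton X-100, 1% formaldehyde, 1 ug/ml Hoechst) and imaged at 4×. Doses were one drug alone or a fixed anchor-drug dose plus five library-drug doses (not always all listed) in √10 steps, and values are duplicate-plate medians.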

NCI-H647 = test system: NCI-H647
In short: as §1

HCC-44 = test system: HCC-44
In short: as §1

201T = test system: 201T
In short: as §1

LXF-289 = test system: LXF-289
In short: as §1

HCC-827 = test system: HCC-827
In short: as §1

NCI-H727 = test system: NCI-H727
In short: as §1

NCI-H2405 = test system: NCI-H2405
In short: as §1

BEN = test system: BEN
In short: as §1

NCI-H1437 = test system: NCI-H1437
In short: as §1

LCLC-103H = test system: LCLC-103H
In short: as §1

SK-LU-1 = test system: SK-LU-1
In short: as §1

HOP-62 = test system: HOP-62
In short: as §1

CAL-12T = test system: CAL-12T
In short: as §1

RERF-LC-KJ = test system: RERF-LC-KJ
In short: as §1

NCI-H2087 = test system: NCI-H2087
In short: as §1

NCI-H3122 = test system: NCI-H3122
In short: as §1

NCI-H1650 = test system: NCI-H1650
In short: as §1

NCI-H2228 = test system: NCI-H2228
In short: as §1

NCI-H1793 = test system: NCI-H1793
In short: as §1

LCLC-97TM1 = test system: LCLC-97TM1
In short: as §1

NCI-H322M = test system: NCI-H322M
In short: as §1

NCI-H1395 = test system: NCI-H1395
In short: as §1

`Oc1nc(-c2ccc(C(F)(F)F)cc2)nc2c1CSCC2` [XAV939] + CCNC(=O)c1noc(-c2cc(C(C)C)c(O)cc2O)c1-c1ccc(CN2CCOCC2)cc1 [Luminespib] (partner 0.01 µM) showed a relative viability (NCI-H1944; first compound 0.08 µM) of 0.843, a relative viability (NCI-H1944; first compound 0.253 µM) of 0.676 and a relative viability (NCI-H1944; first compound 0.8 µM) of 0.788. For the same compound, the relative viability (NCI-H1944; first compound 2.53 µM) was 0.595, the relative viability (NCI-H647; first compound 0.08 µM) was 0.252 and the relative viability (NCI-H647; first compound 0.253 µM) was 0.173. For the same compound, the relative viability (NCI-H647; first compound 0.8 µM) was 0.156, the relative viability (NCI-H647; first compound 2.53 µM) was 0.143 and the relative viability (HCC-44; first compound 0.08 µM) was 1.61. It also gave a relative viability (HCC-44; first compound 0.253 µM) of 0.981, a relative viability (HCC-44; first compound 0.8 µM) of 1.12 and a relative viability (HCC-44; first compound 2.53 µM) of 0.974. The relative viability (201T; first compound 0.08 µM) was 1.02, the relative viability (201T; first compound 0.253 µM) was 0.994 and the relative viability (201T; first compound 0.8 µM) was 1.05. It also gave a relative viability (201T; first compound 2.53 µM) of 0.877, a relative viability (LXF-289; first compound 0.08 µM) of 0.727 and a relative viability (LXF-289; first compound 0.253 µM) of 0.681. For the same compound, the relative viability (LXF-289; first compound 0.8 µM) was 0.778, the relative viability (LXF-289; first compound 2.53 µM) was 0.729 and the relative viability (HCC-827; first compound 0.08 µM) was 0.743. It also gave a relative viability (HCC-827; first compound 0.253 µM) of 0.739, a relative viability (HCC-827; first compound 0.8 µM) of 0.587 and a relative viability (HCC-827; first compound 2.53 µM) of 0.396. For the same compound, the relative viability (NCI-H727; first compound 0.08 µM) was 0.31, the relative viability (NCI-H727; first compound 0.253 µM) was 0.345 and the relative viability (NCI-H727; first compound 0.8 µM) was 0.472. The relative viability (NCI-H727; first compound 2.53 µM) was 0.342, the relative viability (NCI-H2405; first compound 0.08 µM) was 0.657 and the relative viability (NCI-H2405; first compound 0.253 µM) was 0.673. The relative viability (NCI-H2405; first compound 0.8 µM) was 0.599, the relative viability (NCI-H2405; first compound 2.53 µM) was 0.588 and the relative viability (BEN; first compound 0.08 µM) was 0.237. The relative viability (BEN; first compound 0.253 µM) was 0.211, the relative viability (BEN; first compound 0.8 µM) was 0.334 and the relative viability (BEN; first compound 2.53 µM) was 0.262. For the same compound, the relative viability (NCI-H1437; first compound 0.08 µM) was 1.2, the relative viability (NCI-H1437; first compound 0.253 µM) was 1.09 and the relative viability (NCI-H1437; first compound 0.8 µM) was 1.14. The relative viability (NCI-H1437; first compound 2.53 µM) was 0.911, the relative viability (LCLC-103H; first compound 0.08 µM) was 1.09 and the relative viability (LCLC-103H; first compound 0.253 µM) was 0.934. For the same compound, the relative viability (LCLC-103H; first compound 0.8 µM) was 0.971, the relative viability (LCLC-103H; first compound 2.53 µM) was 0.799 and the relative viability (SK-LU-1; first compound 0.08 µM) was 0.201. The relative viability (SK-LU-1; first compound 0.253 µM) was 0.193, the relative viability (SK-LU-1; first compound 0.8 µM) was 0.207 and the relative viability (SK-LU-1; first compound 2.53 µM) was 0.246. It also gave a relative viability (HOP-62; first compound 0.08 µM) of 1.01, a relative viability (HOP-62; first compound 0.253 µM) of 0.869 and a relative viability (HOP-62; first compound 0.8 µM) of 1. It also gave a relative viability (HOP-62; first compound 2.53 µM) of 0.74, a relative viability (CAL-12T; first compound 0.08 µM) of 0.54 and a relative viability (CAL-12T; first compound 0.253 µM) of 0.363. It also gave a relative viability (CAL-12T; first compound 0.8 µM) of 0.363, a relative viability (CAL-12T; first compound 2.53 µM) of 0.3 and a relative viability (RERF-LC-KJ; first compound 0.08 µM) of 1.21. It also gave a relative viability (RERF-LC-KJ; first compound 0.253 µM) of 1.06, a relative viability (RERF-LC-KJ; first compound 0.8 µM) of 1.07 and a relative viability (RERF-LC-KJ; first compound 2.53 µM) of 0.844. It also gave a relative viability (NCI-H2087; first compound 0.08 µM) of 0.165, a relative viability (NCI-H2087; first compound 0.253 µM) of 0.128 and a relative viability (NCI-H2087; first compound 0.8 µM) of 0.152. It also gave a relative viability (NCI-H2087; first compound 2.53 µM) of 0.142, a relative viability (NCI-H3122; first compound 0.08 µM) of 0.0855 and a relative viability (NCI-H3122; first compound 0.253 µM) of 0.0791. It also gave a relative viability (NCI-H3122; first compound 0.8 µM) of 0.0658, a relative viability (NCI-H3122; first compound 2.53 µM) of 0.0658 and a relative viability (NCI-H1650; first compound 0.08 µM) of 0.196. The relative viability (NCI-H1650; first compound 0.253 µM) was 0.225, the relative viability (NCI-H1650; first compound 0.8 µM) was 0.177 and the relative viability (NCI-H1650; first compound 2.53 µM) was 0.197. It also gave a relative viability (NCI-H2228; first compound 0.08 µM) of 0.156, a relative viability (NCI-H2228; first compound 0.253 µM) of 0.158 and a relative viability (NCI-H2228; first compound 0.8 µM) of 0.152. It also gave a relative viability (NCI-H2228; first compound 2.53 µM) of 0.134, a relative viability (NCI-H1793; first compound 0.08 µM) of 0.223 and a relative viability (NCI-H1793; first compound 0.253 µM) of 0.186. It also gave a relative viability (NCI-H1793; first compound 0.8 µM) of 0.176, a relative viability (NCI-H1793; first compound 2.53 µM) of 0.185 and a relative viability (LCLC-97TM1; first compound 0.08 µM) of 0.977. For the same compound, the relative viability (LCLC-97TM1; first compound 0.253 µM) was 0.763, the relative viability (LCLC-97TM1; first compound 0.8 µM) was 0.835 and the relative viability (LCLC-97TM1; first compound 2.53 µM) was 0.765. For the same compound, the relative viability (NCI-H322M; first compound 0.08 µM) was 1.06, the relative viability (NCI-H322M; first compound 0.253 µM) was 0.808 and the relative viability (NCI-H322M; first compound 0.8 µM) was 0.86. For the same compound, the relative viability (NCI-H322M; first compound 2.53 µM) was 0.552, the relative viability (NCI-H1395; first compound 0.08 µM) was 0.614 and the relative viability (NCI-H1395; first compound 0.253 µM) was 0.725. For the same compound, the relative viability (NCI-H1395; first compound 0.8 µM) was 0.721 and the relative viability (NCI-H1395; first compound 2.53 µM) was 0.662.
